Values of other authors, collected in patent US20230008367A1, “COMPOUNDS USEFUL FOR TREATING LIVER DISEASES” (ABIONYX PHARMA SA, priority 2019, published 2023).

System: adults with NASH and fibrosis
Details: Phase 3 trial

Compound: CSc1ccc(C(=O)/C=C/c2cc(C)c(OC(C)(C)C(=O)O)c(C)c2)cc1 [elafibranor]
- primary endpoint of NASH resolution without worsening of fibrosis: did not demonstrate a statistically significant effect
